Experimental data as given in patent publication US20210214303A1, “SCORPION VENOM BENZOQUINONE DERIVATIVES AND USES THEREOF” (priority 2018, published 2021).
Converted amounts (≈) assume the structure as drawn. “Also recorded” adds a separate entry of the source.

Experiments:
[1] = tested on: Mycobacterium tuberculosis multi-drug resistant (MDR) strain; experiment: microbe, parasite or virus in culture; format: cell-based
[2] = tested on: Mycobacterium tuberculosis Multi-Drug-Resistance (MDR) CIBIN99 strain; experiment: experimental model of progressive pulmonary tuberculosis; design: species or system BALB/c mice; conditions: mouse, in vivo

Row | Compound | MIC [1] [µg/mL] | condition of infected mice / overall effect [2] | reduction of pneumonia (automated histomorphometry, lung surface affected by pneumonia) [2] [%] | tissue damage (pneumonia), histology [2]
1 | COC1=CC(=O)C(SC)=C(OC)C1=O [red 1,4 benzoquinone, 3,5-dimethoxy-2-(methylthio)cyclohexa-2,5-diene-1,4-dione] | > 160 |  |  | 
2 | COC1=CC(=O)C(SC)=C(SC)C1=O [blue 1,4 benzoquinone, 5-methoxy-2,3-bis(methylthio)cyclohexa-2,5-diene-1,4-dione] | 4 (≈ 17.4 µM) | effective in vivo; also recorded: improvement by not losing weight and not showing piloerection; also recorded: marked improvement in their condition | 50 | less pneumonia; also recorded: clear decrease in tissue damage; also recorded: twofold decrease
